The subject of the first data set is tip of the tongue of the volunteers. Particulars: human, in vivo.
With `CC(C)Oc1ccc(/C=C/C(=O)N2CCOCC2)cc1` [vi, 3-(4-isopropyloxyphenyl)-2E-propenoic acid morpholine amide], the Pungency index is recorded as 10^6.

As to `O=C(/C=C/c1ccc2c(c1)OCCO2)N1CCOCC1` [x, 3-(3,4-ethylenedioxyphenyl)-2E-propenoic acid morpholine amide], the Pungency index is given as 10^4.

`O=C(/C=C/C=C/c1ccc2c(c1)OCO2)N1CCCCC1` [A, reference compound]: the Pungency index is recorded as 10^4.

For the compound “3-[(2H)-2,2-dimethyl-3,4-dihydro-benzopyran-6yl]-2E-propenoic acid morpholine amide [ix]”, the Pungency index is reported as 10^6.

As for `CCCCOc1ccc(/C=C/C(=O)N2CCOCC2)cc1` [vii, 3-(4-butyloxyphenyl)-2E-propenoic acid morpholine amide], the Pungency index is 10^7.

For `COc1ccc(/C=C/C(=O)N2CCOCC2)cc1` [v, 3-(4-methoxyphenyl)-2E-propenoic acid morpholine amide], the Pungency index is 10^5.

With `CC(C)Oc1ccc(/C=C/C=C/C(=O)N2CCOCC2)cc1` [ii, 5-(4-isopropyloxyphenyl)-2E, 4E-pentadienoic acid morpholine amide], the Pungency index is 10^7.

Take `COc1ccc(/C=C/C=C/C(=O)N2CCOCC2)cc1` [i, 5-(4-methoxyphenyl)-2E, 4E-pentadienoic acid morpholine amide]: the Pungency index is recorded as 10^6.

With `O=C(/C=C/C=C/c1ccc2c(c1)OCCO2)N1CCOCC1` [iv, 5-(3,4-ethylenedioxyphenyl)-2E, 4E-pentadienoic acid morpholine amide], the Pungency index is listed as 10^4.

As to `CC1(C)CCc2cc(/C=C/C=C/C(=O)N3CCOCC3)ccc2O1` [iii, 5-(2H)-2,2-dimethyl-3,4-dihydro-benzopyran-6yl-2E, 4E-pentadienoic acid morpholine amide], the Pungency index was 10^4.

For “3-(4-allyloxy phenyl)-2E-propenoic acid morpholine amide [viii]”, the Pungency index is on record as 10^4.

For another data set, the system named is hepatic drug metabolizing enzymes. Particulars: rat, in vivo; cited from earlier work.
Take `O=C(/C=C/C=C/c1ccc2c(c1)OCO2)N1CCCCC1` [piperine]: the “effect on hepatic drug metabolizing enzymes” value was “inhibiting their activity”.

A further data set concerns tongue. Particulars: in vivo; cited from earlier work.
As to `COc1cc(CNC(=O)CCCC/C=C/C(C)C)ccc1O` [capsaicin], the “heat units (pungency)” value is recorded as 10^7 units.

The record behind these values is patent US7262296B2 (priority 2002, dated 2007).
